From PubChem BioAssay AID1996 come the findings set out here.

Each structure is given as a SMILES string. Values after ≈ are worked out from the molar mass of the structure shown. Bounds are passed on as bounds.

The conditions of the series: buffer; pH 7.4; 200.0 µM.
Turning to `COc1ccc(C(=O)N2CCc3cc4c(cc3C2C)OCCCO4)cc1` (stereo not drawn), the kinetic solubility – broadly, solubility judged after dilution from a stock solution rather than from solid – was more than 53 µg/mL.
Molecule `Cc1ccc(NCc2ccco2)cc1C.O=C(O)C(=O)O` yielded a kinetic solubility of 4.7 µg/mL.
`Cc1ccccc1N1C(=O)C2C3CCC(O3)C2C1=O` (stereo not drawn) yielded a solubility (kinetic) of more than 38.6 µg/mL.
The molecule `Cc1ccc(CC2C(=O)N(c3ccccc3)C(=O)C2C)cc1` (stereo not drawn) gave a kinetic solubility of 7.6 µg/mL (≈ 25.9 µM).
`C#CCOC(=O)Nc1ccc(OCC(F)(F)F)nc1` gave a solubility (kinetic) of 19.2 µg/mL (≈ 70 µM).
Molecule `CCOC(=O)C1(CC2CC2)CCN(C(=O)c2ocnc2C)CC1` gave a kinetic solubility of more than 48.1 µg/mL.
As for `Cc1ccc2cc(/C=C/C(=O)c3ccco3)c(Cl)nc2c1`, the kinetic solubility was 3.2 µg/mL (≈ 10.7 µM).
Consider `O=c1[nH]c2ccccc2n2c(C(F)(F)F)nnc12`, for which the kinetic solubility was more than 38.1 µg/mL.
On to `Cc1ccc(OCC(O)CN2CCc3ccccc3C2)c(C)c1.Cl` (stereo not drawn), for which the solubility (kinetic) is 30.7 µg/mL.
Turning to `c1ccc(-c2nc(NC3CCCC3)c3ccccc3n2)cc1`, the solubility (kinetic) was determined as 3.1 µg/mL (≈ 10.7 µM).
Molecule `O=C(O)c1cc(S(=O)(=O)NCC2COc3ccccc3O2)ccc1Cl` (stereo not drawn) showed a solubility (kinetic) of more than 57.6 µg/mL.
On to `Cc1cn(CCC(=O)Nc2ccc(N3CCOCC3)cc2)c2ccccc12`, for which the kinetic solubility worked out at 46.7 µg/mL (≈ 128 µM).
In the case of `COc1ccc(CCNC(=O)c2csc3c2CCCC3)cc1OC`, the kinetic solubility is more than 51.8 µg/mL.
Next, `CCOC(=O)C1CCCN(C(=O)c2ccc(Cl)cc2)C1` (stereo not drawn): more than 44.4 µg/mL.
`CCCNC(=O)C12CCC(C)(C(=O)O1)C2(C)C` (stereo not drawn) showed a solubility (kinetic) of more than 35.9 µg/mL.
Turning to `CCOC(=O)C1(Cc2ccccc2)CCCN(C2CCCC2)C1` (stereo not drawn), the kinetic solubility was more than 47.3 µg/mL.
The molecule `COc1ccc(OC)c(N(CC(=O)N2CCOCC2)S(C)(=O)=O)c1` gave a kinetic solubility of more than 53.8 µg/mL.
Next, `CC(NC(=O)c1cccs1)c1ccccc1` (stereo not drawn): more than 34.7 µg/mL.
Molecule `COc1cc2c(cc1OC)CN(CC(O)c1ccccc1)CC2` (stereo not drawn) returned a kinetic solubility of 44.3 µg/mL (≈ 141 µM).
Next, `COC(=O)c1ccncc1N`: more than 22.8 µg/mL.
As for `CN(C)S(=O)(=O)c1ccc(C(=O)NC(=O)CSc2nncs2)cc1`, the solubility (kinetic) was more than 58 µg/mL.
Molecule `O=[N+]([O-])c1ccc(NCCOc2ccccc2Cl)nc1` showed a solubility (kinetic) of 1.7 µg/mL (≈ 5.79 µM).
In turn, `CC(C)(C)CNc1cc(N2CCOCC2)ccc1[N+](=O)[O-]` came in with a kinetic solubility of 1.8 µg/mL (≈ 6.14 µM).
For `Cc1nc(N)c(C#N)c(-c2cccnc2)c1-c1ccccc1` the value was 0.6 µg/mL (≈ 2.1 µM); for `O=C(O)CCCCCNC(=O)c1ccc(C(=O)NCCCCCC(=O)O)cc1`, 53.9 µg/mL (≈ 137 µM).
`O=C(COc1cccnc1[N+](=O)[O-])Nc1cccc2ccccc12` registered a solubility (kinetic) of 22.7 µg/mL (≈ 70.2 µM).
For `Cl.NCCSC1CC(=O)N(c2ccc(Cl)c(Cl)c2)C1=O` (stereo not drawn), the kinetic solubility was 32.8 µg/mL.
For `CCN1CCN(CCc2nc3cc([N+](=O)[O-])ccc3n2C)CC1`, the solubility (kinetic) was more than 47.6 µg/mL.
`Cc1cc(=O)oc(C)c1C(=O)Nc1cccc(F)c1`: the kinetic solubility is more than 39.2 µg/mL.
Molecule `Cc1ccc(NC(=S)Nc2ccccn2)cc1C` returned a solubility (kinetic) of 0.4 µg/mL (≈ 1.55 µM).
With `COC(=O)c1cc(N2CCNCC2)nc2ccccc12.Cl`, the solubility (kinetic) is 39.9 µg/mL.
With `Cn1c(SCC(=O)NC2CC2)nnc1-c1ccccc1`, the solubility (kinetic) was more than 43.3 µg/mL.
In turn, `Cc1nc2ccccn2c(=O)c1NC(=O)c1cccs1` gave a kinetic solubility of more than 42.8 µg/mL.
For the molecule `Cc1cc(C)n2c(SCC(=O)Nc3cc(S(=O)(=O)N(C)C)ccc3C)nnc2n1`, the kinetic solubility is more than 65.2 µg/mL.
`N#C/C(=C\c1ccc[nH]1)C(=O)N1CCCCC1` came in with a solubility (kinetic) of more than 34.4 µg/mL.
On to `Cc1ccc(CC2CC(=O)N(c3cc(C)ccc3C)C2=O)cc1` (stereo not drawn), for which the solubility (kinetic) was 33.9 µg/mL (≈ 110 µM).
On to `Cc1ccc(C(=O)O/N=C(\N)c2ccccn2)cc1`, for which the kinetic solubility was determined as 6.9 µg/mL (≈ 27 µM).
Regarding `O=C(/C=C/Nc1ccc(F)cc1F)c1ccc(Br)cc1`, the solubility (kinetic) was less than 0.7 µg/mL.
In turn, `O=C(/C=C/c1cccc(F)c1)NCc1ccc2c(c1)OCO2` displayed a solubility (kinetic) of 3.3 µg/mL (≈ 11 µM).
As for `O=C(CSCc1ccc(F)cc1)NCc1ccc(F)cc1`, the kinetic solubility worked out at 44 µg/mL (≈ 143 µM).
`COc1cc2nc(NC(=O)c3ccco3)sc(=O)c2cc1OC`: the solubility (kinetic) turned out to be 1 µg/mL (≈ 3.01 µM).
For `Cc1cccc(NC(=O)COC(=O)CN2CCCCCC2=O)c1C` the value was more than 49.9 µg/mL.
For `COc1ccccc1CCC(=O)Oc1ccccc1C#N`, the solubility (kinetic) was 16.6 µg/mL (≈ 59 µM).
As to `CC1CCCN(S(=O)(=O)c2cccc([N+](=O)[O-])c2)C1` (stereo not drawn), the kinetic solubility turned out to be 13.3 µg/mL (≈ 46.8 µM).
The molecule `O=C(NCCN1CCOCC1)c1ccc(Cl)c(S(=O)(=O)NCc2ccccc2)c1` yielded a kinetic solubility of 63.2 µg/mL (≈ 144 µM).
As for `Cc1ccc(CNC(=O)c2cc(=O)c3ccccc3o2)cc1`, the solubility (kinetic) amounted to 3 µg/mL (≈ 10.2 µM).
Next, `O=C(c1cccc(NS(=O)(=O)c2ccccc2)c1)N1CCCC1`: 43.9 µg/mL (≈ 133 µM).
For `O=c1c2oc3ccccc3c2ncn1Cc1ccc(F)cc1` the value was 0.8 µg/mL (≈ 2.72 µM); for `C=CCN(c1ccccc1OC)S(=O)(=O)c1cccc(C(=O)OC2CCOC2=O)c1` (stereo not drawn), 56.7 µg/mL (≈ 131 µM); for `CCCCN(Cc1cc2cccc(C)c2[nH]c1=O)S(C)(=O)=O`, 41 µg/mL (≈ 127 µM).
`COC(=O)C1CCN(c2ccc([N+](=O)[O-])cc2[N+](=O)[O-])CC1` showed a kinetic solubility of more than 46.4 µg/mL.
With `Cc1cc(NC(=O)CN(C)CC(=O)Nc2ccc(Cl)cc2)no1`, the solubility (kinetic) was more than 50.5 µg/mL.
As for `Cc1ccc(S(=O)(=O)N2CCC3(CC2)OCCO3)c(C)c1`, the kinetic solubility is more than 46.7 µg/mL.
The molecule `O=C(NCCc1ccccc1)C1CCCN(c2cnccn2)C1` (stereo not drawn) showed a solubility (kinetic) of 45.9 µg/mL (≈ 148 µM).
Consider `Cc1ccc2nc(N3CCN(CCO)CC3)nc(-c3ccccc3)c2c1`, for which the solubility (kinetic) is more than 52.3 µg/mL.
Next, `CC1CN(C(=O)Nc2ccc(Br)cc2Cl)CC(C)O1` (stereo not drawn): 30.3 µg/mL (≈ 87.2 µM); `CN(Cc1ccccc1)S(=O)(=O)c1ccc(Cl)c(C(=O)OCC(=O)NC2CCS(=O)(=O)C2)c1` (stereo not drawn): 18 µg/mL (≈ 35 µM); `CC1CCCC(NC(=O)COC(=O)c2cccs2)C1C` (stereo not drawn): 43.1 µg/mL (≈ 146 µM).
Molecule `O=C(c1ccc(=O)[nH]c1)N1CCCc2ccccc21` gave a kinetic solubility of more than 38.1 µg/mL.
In the case of `CCOc1ccc(N2C(=O)CC(SCC(=O)O)C2=O)cc1` (stereo not drawn), the kinetic solubility is more than 46.4 µg/mL.
The molecule `O=C(Cc1cccs1)NCCc1ccc(F)cc1` showed a kinetic solubility of more than 39.5 µg/mL.
In turn, `COc1cc(CC(=O)OCC(=O)NCc2ccco2)cc(OC)c1OC` displayed a solubility (kinetic) of more than 54.5 µg/mL.
`COc1ccc(CN2CCOCCOCCOCCOCC2)cc1`: the solubility (kinetic) is more than 50.9 µg/mL.
Molecule `CCOC(=O)c1c(O)c2cccc3c2n(c1=O)CC3` showed a solubility (kinetic) of more than 38.9 µg/mL.
For `CC(C)NC(=O)C(=O)c1cn(C)c2ccccc12`, the kinetic solubility was 33.3 µg/mL (≈ 136 µM).
`CCOc1ccc(C(C)NC(=S)NCc2ccc(F)cc2)cc1` (stereo not drawn) registered a solubility (kinetic) of 2.8 µg/mL (≈ 8.42 µM).
Next, `CC(C)(C)C1CCC(=NNC(=O)C(=O)NCc2cccnc2)CC1` (stereo not drawn): more than 49.6 µg/mL; `CCc1ccc(/C=C(\C#N)C(=O)NC2CCS(=O)(=O)C2)cc1` (stereo not drawn): 7.8 µg/mL (≈ 24.5 µM).
For `Cc1cc2ccccn2c1C(=O)c1ccc(S(=O)(=O)N(C)C)cc1` the value was 1.1 µg/mL (≈ 3.21 µM).
The molecule `COc1ccc(NC(=S)NC2CC3CCCC(C2)N3C2CC2)cc1` (stereo not drawn) came in with a solubility (kinetic) of more than 51.8 µg/mL.
The molecule `O=C(COC(=O)c1cccc([N+](=O)[O-])c1)NC1CCCC1` yielded a kinetic solubility of 32.3 µg/mL (≈ 111 µM).
`N#CCCN(Cc1ccccc1)C(=S)Nc1ccc(F)cc1`: the kinetic solubility came out at 28.8 µg/mL (≈ 91.9 µM).
`COC(=O)c1cccc(NC(=O)CN2C(=O)c3ccccc3C2=O)c1`: the kinetic solubility amounted to 21.3 µg/mL (≈ 63 µM).
In turn, `Cc1cccc(-c2noc(CN(C)C(=O)COc3ccccc3)n2)c1` had a kinetic solubility of 36.9 µg/mL (≈ 109 µM).
For `CN(C(=O)Oc1ccc(F)cc1)c1ccccc1` the value was 24 µg/mL (≈ 97.9 µM); for `NS(=O)(=O)c1ccc(CCNC(=O)CCc2ccccc2)cc1`, 46.4 µg/mL (≈ 140 µM).
In turn, `O=C(NCCNCc1cccs1)c1ccccc1F` came in with a solubility (kinetic) of 37.6 µg/mL (≈ 135 µM).
Next, `CCCNC(=O)COC(=O)/C(C#N)=C/c1cc(C)n(CCC)c1C`: 1.6 µg/mL (≈ 4.83 µM).
As to `O=C(/C=C/c1cccs1)NCc1ccc2c(c1)OCO2`, the kinetic solubility amounted to 6.3 µg/mL (≈ 21.9 µM).
`CCOC(=O)Cc1csc(NS(=O)(=O)c2ccc([N+](=O)[O-])cc2)n1` had a solubility (kinetic) of more than 55.7 µg/mL.
Take `COc1ccc(NC2SC(=O)N(C)C2=O)cc1` (stereo not drawn): the solubility (kinetic) came out at 37.6 µg/mL (≈ 149 µM).
`CCOC(=O)C1CCN(C(=O)c2cc3cc(F)ccc3[nH]2)CC1` gave a kinetic solubility of 32.4 µg/mL (≈ 102 µM).
In turn, `Cc1cc(=O)[nH]c(SCC(=O)NCC2CCCO2)n1` (stereo not drawn) displayed a kinetic solubility of more than 42.5 µg/mL.
With `CC1CCCN(C(=O)COC(=O)Cn2cnc3ccccc32)C1` (stereo not drawn), the kinetic solubility is more than 47.3 µg/mL.
The molecule `O=C(Nc1ccc(Cl)cn1)c1cc2c(s1)-c1ccccc1OC2` displayed a solubility (kinetic) of less than 0.4 µg/mL.
Take `COc1ccc(/C=N/NC(N)=S)cc1`: the solubility (kinetic) was more than 31.4 µg/mL.
`COc1ccc(S(=O)(=O)Nc2ccc(Cl)cn2)cc1` had a kinetic solubility of 14.4 µg/mL (≈ 48.2 µM).
`O=C(Nc1ccncc1)Nc1ccc(Br)cc1Cl` yielded a kinetic solubility of 1.9 µg/mL (≈ 5.82 µM).
For the molecule `CC1CCCC(NC(=O)COC(=O)[C@@H](NC(=O)c2ccc(F)cc2)C(C)C)C1C` (stereo partly drawn), the kinetic solubility was 8.7 µg/mL (≈ 21.4 µM).
For `O=C(/C=C/c1cccs1)NCc1cccs1` the value was 32.3 µg/mL (≈ 130 µM).
`COc1ccc(NC(=O)NC2CCCc3ccccc32)cc1` (stereo not drawn) had a kinetic solubility of 1.9 µg/mL (≈ 6.41 µM).
Molecule `CN(C(=O)Cn1cc([N+](=O)[O-])ccc1=O)C1CCCCC1` returned a kinetic solubility of 41.7 µg/mL (≈ 142 µM).
The molecule `COc1ccc2nc(SCC(=O)Nc3ccccc3OC)[nH]c2c1` had a solubility (kinetic) of 39.6 µg/mL (≈ 115 µM).
Molecule `CN(C)CCCNC1=CC(=O)CC(c2ccccc2)C1` (stereo not drawn) came in with a kinetic solubility of 34.8 µg/mL (≈ 128 µM).
Molecule `Cc1nnc(SCC(=O)Nc2ccc(OC(F)F)c(Cl)c2)n(N)c1=O` displayed a solubility (kinetic) of more than 58.8 µg/mL.
The molecule `CN(C)C(=O)COc1ncnc2sc(-c3ccccc3)cc12` showed a solubility (kinetic) of 13.9 µg/mL (≈ 44.4 µM).
Regarding `Cc1cc(C)c(C(N)=O)c(SCC(=O)c2cc(C)n(-c3cc(C)on3)c2C)n1`, the solubility (kinetic) was determined as 1.9 µg/mL (≈ 4.77 µM).
`Cc1ccc(NC(=O)COC(=O)C2(CC(=O)NC(C)C)CCCC2)cc1C`: the kinetic solubility came to 3.6 µg/mL (≈ 9.61 µM).
In turn, `O=C1NC(=O)N(CC2CCCO2)C(=O)/C1=C/c1cccs1` (stereo not drawn) gave a solubility (kinetic) of more than 46 µg/mL.
Regarding `Cc1ccc(S(=O)(=O)N2CCN(C)CC2)cc1`, the kinetic solubility was more than 38.2 µg/mL.
Consider `Nc1cccc(Nc2ccccc2)c1`, for which the solubility (kinetic) is more than 27.6 µg/mL.
Regarding `COCCNc1nc(SC)nc2sc3c(c12)CCN(C)C3`, the solubility (kinetic) amounted to 46.5 µg/mL (≈ 143 µM).
`CCOc1ccc(C(=O)NCCN2CCOCC2)cc1` registered a kinetic solubility of more than 41.8 µg/mL.
